Test results taken from patent publication US8586550B2, “Thiazole derivatives as SGLT2 inhibitors and pharmaceutical composition comprising same” (Green Cross Corporation, priority 2010, dated 2013).

Molecular target: T1, Human SGLT2 (hSGLT2) (Homo sapiens, UniProt P31639)
T1 construct: expressed in transfected cells
T1 sequence (P31639 1-672): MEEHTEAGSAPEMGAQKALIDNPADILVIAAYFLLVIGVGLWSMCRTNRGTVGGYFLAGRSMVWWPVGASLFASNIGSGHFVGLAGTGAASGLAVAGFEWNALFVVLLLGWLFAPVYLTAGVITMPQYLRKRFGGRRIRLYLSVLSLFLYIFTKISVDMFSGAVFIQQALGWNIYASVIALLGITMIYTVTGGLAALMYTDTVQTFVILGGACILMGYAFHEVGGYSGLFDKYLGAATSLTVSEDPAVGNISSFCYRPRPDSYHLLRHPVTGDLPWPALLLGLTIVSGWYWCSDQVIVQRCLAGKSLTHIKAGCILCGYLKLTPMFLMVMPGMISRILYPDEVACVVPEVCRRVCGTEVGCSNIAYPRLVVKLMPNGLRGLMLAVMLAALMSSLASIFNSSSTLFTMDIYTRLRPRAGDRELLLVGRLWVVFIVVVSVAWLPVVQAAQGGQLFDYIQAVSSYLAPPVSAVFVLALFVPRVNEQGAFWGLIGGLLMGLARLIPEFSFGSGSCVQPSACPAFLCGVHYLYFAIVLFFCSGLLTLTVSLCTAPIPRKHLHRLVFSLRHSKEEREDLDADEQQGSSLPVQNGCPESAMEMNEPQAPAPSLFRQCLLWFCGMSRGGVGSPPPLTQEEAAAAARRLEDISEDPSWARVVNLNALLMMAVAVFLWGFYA
Experiment: Sodium-dependent glucose transport (14C-AMG uptake) assay in CHO cells stably expressing hSGLT2
Format: cell-based
Conditions: CHO cells expressing hSGLT2, 14C-AMG uptake, 37° C. for 2 h; single determinations; read-out: hSGLT2 Inhibitory Activity IC50
Method in brief: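 CHO cells stably expressing human SGLT2, preincubated 10 min at 37 °C in sodium-free choline buffer, then 2 h at 37 °C in Na+ buffer with 1 mM AMG plus 8 μM 14C-AMG and inhibitor. Washed cells counted by scintillation; IC50 by nonlinear regression.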

Compound	IC50 [nM]
O=C(OCc1ccccc1)OC[C@H]1O[C@@H](c2ccc(Cl)c(Cc3ncc(-c4ccco4)s3)c2)[C@H](O)[C@@H](O)[C@@H]1O [Example 164, Benzyl ((2R,3S,4R,5R,6S)-6-(4-chloro-3-((5-(furan-2-yl)thiazol-2-yl)methyl)phenyl)-3,4,5-trihydroxytetrahydro-2H-pyran-2-yl)methyl carbonate]	2.44
CCOC(=O)OC[C@H]1O[C@@H](c2ccc(Cl)c(Cc3ncc(-c4ccsc4)s3)c2)[C@H](O)[C@@H](O)[C@@H]1O [Example 165, ((2R,3S,4R,5R,6S)-6-(4-Chloro-3-((5-(thiophen-3-yl)thiazol-2-yl)methyl)phenyl)-3,4,5-trihydroxytetrahydro-2H-pyran-2-yl)methyl ethyl carbonate]	7.39
OC[C@H]1O[C@@H](c2ccc(Cl)c(Cc3cnc(-c4ccccc4)s3)c2)[C@H](O)[C@@H](O)[C@@H]1O [Example 183, (2S,3R,4R,5S,6R)-2-(4-Chloro-3-((2-phenylthiazol-5-yl)methyl)phenyl)-6-(hydroxymethyl)-tetrahydro-2H-pyran-3,4,5-triol]	5.76
OC[C@H]1O[C@@H](c2ccc(Cl)c(Cc3cnc(-c4ccco4)s3)c2)[C@H](O)[C@@H](O)[C@@H]1O [Example 184, (2S,3R,4R,5S,6R)-2-(4-Chloro-3-((2-(furan-2-yl)thiazol-5-yl)methyl)phenyl)-6-(hydroxymethyl)tetrahydro-2H-pyran-3,4,5-triol]	1.42
OC[C@H]1O[C@@H](c2ccc(Cl)c(Cc3cnc(-c4cc5ccccc5o4)s3)c2)[C@H](O)[C@@H](O)[C@@H]1O [Example 185, (2S,3R,4R,5S,6R)-2-(3-((2-(Benzofuran-2-yl)thiazol-5-yl)methyl)-4-chlorophenyl)-6-(hydroxymethyl)tetrahydro-2H-pyran-3,4,5-triol]	76.6
OC[C@H]1O[C@@H](c2ccc(Cl)c(Cc3cnc(-c4ccoc4)s3)c2)[C@H](O)[C@@H](O)[C@@H]1O [Example 186, (2S,3R,4R,5S,6R)-2-(4-Chloro-3-((2-(furan-3-yl)thiazol-5-yl)methyl)phenyl)-6-(hydroxymethyl)tetrahydro-2H-pyran-3,4,5-triol]	4.47
OC[C@H]1O[C@@H](c2ccc(Cl)c(Cc3cnc(-c4cccs4)s3)c2)[C@H](O)[C@@H](O)[C@@H]1O [Example 187, (2S,3R,4R,5S,6R)-2-(4-Chloro-3-((2-(thiophen-2-yl)thiazol-5-yl)methyl)phenyl)-6-(hydroxymethyl)tetrahydro-2H-pyran-3,4,5-triol]	2.79
Cc1ccc(-c2ncc(Cc3cc([C@@H]4O[C@H](CO)[C@@H](O)[C@H](O)[C@H]4O)ccc3Cl)s2)s1 [Example 188, (2S,3R,4R,5S,6R)-2-(4-Chloro-3-((2-(5-methylthiophen-2-yl)thiazol-5-yl)methyl)phenyl)-6-(hydroxymethyl)tetrahydro-2H-pyran-3,4,5-triol]	10.4
OC[C@H]1O[C@@H](c2ccc(Cl)c(Cc3cnc(-c4ccc(Cl)s4)s3)c2)[C@H](O)[C@@H](O)[C@@H]1O [Example 189, (2S,3R,4R,5S,6R)-2-(4-Chloro-3-((2-(5-chlorothiophen-2-yl)thiazol-5-yl)methyl)phenyl)-6-(hydroxymethyl)tetrahydro-2H-pyran-3,4,5-triol]	8.64
OC[C@H]1O[C@@H](c2ccc(Cl)c(Cc3cnc(-c4ccsc4)s3)c2)[C@H](O)[C@@H](O)[C@@H]1O [Example 190, (2S,3R,4R,5S,6R)-2-(4-Chloro-3-((2-(thiophen-3-yl)thiazol-5-yl)methyl)phenyl)-6-(hydroxymethyl)tetrahydro-2H-pyran-3,4,5-triol]	0.901
OC[C@H]1O[C@@H](c2ccc(Cl)c(Cc3cnc(-c4cocn4)s3)c2)[C@H](O)[C@@H](O)[C@@H]1O [Example 191, (2S,3R,4R,5S,6R)-2-(4-Chloro-3-((2-(oxazol-4-yl)thiazol-5-yl)methyl)phenyl)-6-(hydroxymethyl)tetrahydro-2H-pyran-3,4,5-triol]	45.4
OC[C@H]1O[C@@H](c2ccc(Cl)c(Cc3cnc(-c4ccno4)s3)c2)[C@H](O)[C@@H](O)[C@@H]1O [Example 192, (2S,3R,4R,5S,6R)-2-(4-Chloro-3-((2-(isoxazol-5-yl)thiazol-5-yl)methyl)phenyl)-6-(hydroxymethyl)tetrahydro-2H-pyran-3,4,5-triol]	20.2
OC[C@H]1O[C@@H](c2ccc(Cl)c(Cc3cnc(-c4cscn4)s3)c2)[C@H](O)[C@@H](O)[C@@H]1O [Example 193, (2S,3R,4R,5S,6R)-2-(3-(2,4′-Bithiazol-5-ylmethyl)-4-chlorophenyl)-6-(hydroxymethyl)tetrahydro-2H-pyran-3,4,5-triol]	17.7
OC[C@H]1O[C@@H](c2ccc(Cl)c(Cc3cnc(-c4ccc(F)cc4)s3)c2)[C@H](O)[C@@H](O)[C@@H]1O [Example 194, (2S,3R,4R,5S,6R)-2-(4-Chloro-3-((2-(4-fluorophenyl)thiazol-5-yl)methyl)phenyl)-6-(hydroxymethyl)tetrahydro-2H-pyran-3,4,5-triol]	6.39
OC[C@H]1O[C@@H](c2ccc(Cl)c(Cc3cnc(-c4cnccn4)s3)c2)[C@H](O)[C@@H](O)[C@@H]1O [Example 195]	4.35
CSc1ncc(Cc2cc([C@@H]3O[C@H](CO)[C@@H](O)[C@H](O)[C@H]3O)ccc2Cl)s1 [Example 197, (2S,3R,4R,5S,6R)-2-(4-Chloro-3-((2-(methylthio)thiazol-5-yl)methyl)phenyl)-6-(hydroxymethyl)tetrahydro-2H-pyran-3,4,5-triol]	9.48
CCCSc1ncc(Cc2cc([C@@H]3O[C@H](CO)[C@@H](O)[C@H](O)[C@H]3O)ccc2Cl)s1 [Example 198, (2S,3R,4R,5S,6R)-2-(4-Chloro-3-((2-(propylthio)thiazol-5-yl)methyl)phenyl)-6-(hydroxymethyl)tetrahydro-2H-pyran-3,4,5-triol]	15.4
OC[C@H]1O[C@@H](c2cc(Cc3cnc(-c4ccsc4)s3)c(Cl)cc2F)[C@H](O)[C@@H](O)[C@@H]1O [Example 203, (2S,3R,4R,5S,6R)-2-(4-Chloro-2-fluoro-5-((2-(thiophen-3-yl)thiazol-5-yl)methyl)phenyl)-6-(hydroxymethyl)tetrahydro-2H-pyran-3,4,5-triol]	1.39
(2S,3R,4R,5S,6R)-2-(4-Chloro-2-ethoxy-5-((5-(furan-3-yl)thiazol-2-yl)methyl)phenyl)-6-(hydroxymethyl)tetrahydro-2H-pyran-3,4,5-triol [Example 31]	3.66
(2S,3R,4R,5S,6R)-2-(4-Chloro-2-ethoxy-5-((5-(thiophen-3-yl)thiazol-2-yl)methyl)phenyl)-6-(hydroxymethyl)tetrahydro-2H-pyran-3,4,5-triol [Example 80]	1.18
(2S,3R,4R,5S,6R)-2-(4-Chloro-3-((4-phenylthiazol-2-yl)methyl)phenyl)-6-(hydroxymethyl)tetrahydro-2H-pyran-3,4,5-triol [Example 71]	1.59
(2S,3R,4R,5S,6R)-2-(4-Fluoro-3-((5-(thiazol-3-yl)thiazol-2-yl)methyl)phenyl)-6-(hydroxymethyl)tetrahydro-2H-pyran-3,4,5-triol [Example 43]	7.36
